Reference: patent US9607202B2, “Methods of generating trophectoderm and neurectoderm from human embryonic stem cells” (UNIVERSITY OF PITTSBURGH—OF THE COMMONWEALTH SYSTEM OF …, priority 2009, dated 2017)

Columns and labels:
Type in all cases: cell-based, human
[1] = tested on: hESCs; experiment: HDAC inhibition with TSA on BMP4-induced hESC differentiation in MIM
Text: Though not TE-selective, BMP4 supplementation to MIM was the most robust protocol for hESC differentiation to multiple lineages. To test whether or not TSA caused lineage specific inhibition, this protocol was used to assess HDAC inhibition on hESC differentiation to TE, ME or ExE. […] Thus HDAC inhibition delayed BMP4-induced hESC differentiation in the short-term, without altering lineage selection
96-well Microplates were scanned using the 5 or 10× objective on the ArrayScan V Automated image analysis was performed using the Compartmental Analysis BioApplication using Hoechst for identification of nuclei and various transcription factor antibodies (Table 2). Nuclear-specific fluorescence intensity was determined from approximately 300 single cells per well from 3-6 independent wells to produce a well-average nuclear intensity for each measurement Mean and standard deviation were calculated from multiple wells. Fold change of the mean intensities were normalized against matched unstimulated external controls, usually the pluripotent condition, to divide out differences due to efficiency of antibody-antigen binding and chromophore quantum yield. […] Select conditions are additionally compared in bar graph format to show standard deviations and T-tests.
Colony morphology was quantified by statistical multiresolution analysis of image texture (Mangoubi et al., 2007; Sammak et al., 2008). Image texture is a mathematical measure of the size and sharpness of objects in the image, which is illustrated in one dimension by an intensity line profile (FIG. 10). […] Therefore, we employ texture analysis as an integrated measure of colony morphology. Texture was measured using wavelet analysis (Do and Vetterli, 2002), a generalization of Fourier analysis, to decompose colony texture in phase contrast images (4× objective, Nikon TMS microscope), producing a joint probability density function for the wavelet coefficients from various scales. Different culture conditions can be distinguished as belonging to distinct classes. Each class is thus represented by a probability density function, and quantitative comparative features for classifying and statistically distinguishing colony textures are extracted from the density functions. One such feature is the Kullback-Leibler (KL) distance (Do and Vetterli, 2002). […] Specifically the KL distance between a pair of colonies from the same class is shorter than a pair from different classes.

[2] = tested on: pluripotent hESC, line H7; experiment: TSA or HDAC siRNA on pluripotent hESC in mTeSR: developmental and epigenetic markers (Arrayscan); conditions: TSA 0.5, 1.0 and 2.0 nM for 2 days
Protocol: In all panels of FIG. 11, pluripotent hESC, line H7, were cultured in mTeSR media were plated in 96 well plates, fixed and immunostained for developmental and epigenetic markers, and the intensity was measured using the Thermo Fisher Arrayscan. 300 cells per well, 3 wells per condition were measured and standard deviations (error bars) and T Tests were evaluated. […] Anti-HDAC3 antibodies confirms that siRNA directed against HDAC3, but not HDAC1, HDAC2, or control knocked down the concentration of HDAC3 (P<0.05, data not background subtracted). […] This protein changes colony texture by producing smooth, homogeneous colonies. […] This marker is selective for high cells with high levels of pluripotency.

[3] = tested on: hESCs; experiment: TSA-mediated inhibition of noggin induction of neurectoderm differentiation
Protocol: The hESCs were grown and passaged via standard collagenase methods and passaged into two ibidi plastic 8-well slides. All hESCs were plated onto feederless plates with Stempro Media for 24 hours. hESCs were 50% confluent at time of passage and split 1:5.
All plates were fed with Neural Differentiation Media (1:1 mix of D-MEM/F12 supplemented with 1×N2 and Neurobasal medium supplemented with B27 (all from Gibco/Invitrogen); supplemented with 100 ng/ml mouse recombinant noggin (R & D systems), 50 U/ml penicillin/50 μg/ml streptomycin (Invitrogen) and 2 mML-glutamine (Invitrogen)) starting at day 0 (100 ng/mL noggin in N2B/27 with media changed daily). Six wells in each of two plates was treated with TSA (0-25 nM daily beginning 24 hours s/p plating hESC
Colonies were stained with HDACI and Nestin. These proteins co-stained in a peri-nuclear filamentous pattern consistent with previous Nestin distribution. Pax6 expression was negative.

[4] = tested on: hESC; experiment: TSA toxicity in hESC
[5] = 2 nM TSA in MIM plus BMP4, 48 hours, relative to BMP4 alone

`CC(/C=C/C(=O)NO)=C\[C@@H](C)C(=O)c1ccc(N(C)C)cc1` [TSA, trichostatin A] was tested, and the CDX2 expression [1, 5] was “decrease”, the GATA6 expression [1, 5] was “decrease” and the OCT4 level [1, 5] was “significant OCT4 level increase”. The brachyury expression [1, 5] was “decrease”, the “expression of HDAC3” value ([1]; TSA added to MIM with BMP4) was “significantly reduced” and the “methylation of histone H3K9” value ([1]; TSA added to MIM with BMP4) was “significantly reduced”. For the same molecule, the “BMP4-induced epithelial transformation (colony morphology by texture analysis)” value ([1]; TSA in MIM plus BMP4, 48 hours) was “significantly delayed”, the “DNA methylation on 5'cytosine” value [2] was “decreased” and the GTCM2 [2] was “increased”. The H3K9me3 [2] was “decreased”, the H3K27me3 [2] was “decreased” and the HDAC3 [2] was “significantly reduced”. The Nanog [2] was “increased”, the “histone acetylation on H3K9” value [2] was “decreased acetylation” and the “increase of colony size” value [2] was 2 fold. The “peripheral F-actin” value [2] was “increased”, the Oct4 ([2]; dose dependent) was “increased” and the “molar sensitivity in hESC” value [3] was 1 nM. The “HDAC (HDAC1 expression)” value ([3]; 1.0 nM TSA) was “reduces”, the expression of nestin ([3]; 1.0 nM TSA) was “reduces” and the “methylation of histone H3 on lysine 9” value ([3]; 1.0 nM TSA) was “reduces”. The “effect on cell-cell adhesion and cell motility” value ([3]; 5 nM TSA, noggin differentiation media, 48 hrs) was “reduced cell-cell adhesion and increased cell motility”, the “longer-term formation of neurectoderm” value ([3]; TSA treatment for 4 or more days) was “did not inhibit longer-term formation of neurectoderm” and the neurectoderm formation ([3]; TSA treatment for 2 days at the initiation of differentiation) was “inhibited neurectoderm formation”. The “highest concentration without toxic effects” value [4] was 1 nM.
